{"source": "patent US12162840B2", "about": "“Herbicidal compositions” (SYNGENTA PARTICIPATIONS AG, priority 2018, dated 2024)", "tested_on": "cool season plant species", "test": "B2 Post-emergence efficacy Test 2, cool season plant species", "type": "in vivo", "conditions": "15 days after application, 0=no damage, 100=total kill", "procedure": "Seeds of a variety of test species (see Table B1) were sown in standard soil in pots. After cultivation for 12 days (post-emergence) under controlled conditions in a glasshouse (at 24/18° C. or 20/16° C., at day/night; 16 hours light; 65% humidity), the plants were sprayed with an aqueous spray solution derived from the formulation of the technical active ingredient dissolved in IF50 (see Table B2 for composition) and adjuvant (Genapol XO80) was added to the spray solution at a rate of 0.2% v/v. [table] [table] After application, the test plants were grown in a glasshouse under controlled conditions (as above) and watered twice daily. Herbicidal activity was evaluated 15 days after application on a 0-100 scale. The results, where 0=no damage to test plant and 100=total kill of test plant are shown below in Tables 6 to 9.", "data": [{"compound": "Cc1nn(C)c(=O)c(-c2c(F)ccc(Cl)c2CCc2ccc(F)cc2)c1O", "note": "[Compound 1.048]", "values": [{"measurement": "Herbicidal activity (0-100 scale) ALOMY", "setting": "15 g/Ha", "value": 20}, {"measurement": "Herbicidal activity (0-100 scale) ALOMY", "setting": "30 g/Ha", "value": 30}, {"measurement": "Herbicidal activity (0-100 scale) ALOMY", "setting": "60 g/Ha", "value": 70}, {"measurement": "Herbicidal activity (0-100 scale) ALOMY", "setting": "125 g/Ha", "value": 80}, {"measurement": "Herbicidal activity (0-100 scale) ALOMY", "setting": "250 g/Ha", "value": 80}, {"measurement": "Herbicidal activity (0-100 scale) ALOMY", "setting": "500 g/Ha", "value": 90}, {"measurement": "Herbicidal activity (0-100 scale) AVEFA", "setting": "15 g/Ha", "value": 10}, {"measurement": "Herbicidal activity (0-100 scale) AVEFA", "setting": "30 g/Ha", "value": 30}, {"measurement": "Herbicidal activity (0-100 scale) AVEFA", "setting": "60 g/Ha", "value": 60}, {"measurement": "Herbicidal activity (0-100 scale) AVEFA", "setting": "125 g/Ha", "value": 80}, {"measurement": "Herbicidal activity (0-100 scale) AVEFA", "setting": "250 g/Ha", "value": 90}, {"measurement": "Herbicidal activity (0-100 scale) AVEFA", "setting": "500 g/Ha", "value": 90}, {"measurement": "Herbicidal activity (0-100 scale) BEAVA", "setting": "15 g/Ha", "value": 70}, {"measurement": "Herbicidal activity (0-100 scale) BEAVA", "setting": "30 g/Ha", "value": 80}, {"measurement": "Herbicidal activity (0-100 scale) BEAVA", "setting": "60 g/Ha", "value": 80}, {"measurement": "Herbicidal activity (0-100 scale) BEAVA", "setting": "125 g/Ha", "value": 90}, {"measurement": "Herbicidal activity (0-100 scale) BEAVA", "setting": "250 g/Ha", "value": 90}, {"measurement": "Herbicidal activity (0-100 scale) BEAVA", "setting": "500 g/Ha", "value": 90}, {"measurement": "Herbicidal activity (0-100 scale) BROTE", "setting": "15 g/Ha", "value": 0}, {"measurement": "Herbicidal activity (0-100 scale) BROTE", "setting": "30 g/Ha", "value": 10}, {"measurement": "Herbicidal activity (0-100 scale) BROTE", "setting": "60 g/Ha", "value": 20}, {"measurement": "Herbicidal activity (0-100 scale) BROTE", "setting": "125 g/Ha", "value": 50}, {"measurement": "Herbicidal activity (0-100 scale) BROTE", "setting": "250 g/Ha", "value": 60}, {"measurement": "Herbicidal activity (0-100 scale) BROTE", "setting": "500 g/Ha", "value": 70}, {"measurement": "Herbicidal activity (0-100 scale) BRSNN", "setting": "15 g/Ha", "value": 90}, {"measurement": "Herbicidal activity (0-100 scale) BRSNN", "setting": "30 g/Ha", "value": 90}, {"measurement": "Herbicidal activity (0-100 scale) BRSNN", "setting": "60 g/Ha", "value": 90}, {"measurement": "Herbicidal activity (0-100 scale) BRSNN", "setting": "125 g/Ha", "value": 90}, {"measurement": "Herbicidal activity (0-100 scale) BRSNN", "setting": "250 g/Ha", "value": 90}, {"measurement": "Herbicidal activity (0-100 scale) BRSNN", "setting": "500 g/Ha", "value": 90}, {"measurement": "Herbicidal activity (0-100 scale) CHEAL", "setting": "125 g/Ha", "value": 70}, {"measurement": "Herbicidal activity (0-100 scale) CHEAL", "setting": "250 g/Ha", "value": 90}, {"measurement": "Herbicidal activity (0-100 scale) CHEAL", "setting": "500 g/Ha", "value": 100}, {"measurement": "Herbicidal activity (0-100 scale) GALAP", "setting": "15 g/Ha", "value": 20}, {"measurement": "Herbicidal activity (0-100 scale) GALAP", "setting": "30 g/Ha", "value": 30}, {"measurement": "Herbicidal activity (0-100 scale) GALAP", "setting": "60 g/Ha", "value": 50}, {"measurement": "Herbicidal activity (0-100 scale) GALAP", "setting": "125 g/Ha", "value": 60}, {"measurement": "Herbicidal activity (0-100 scale) GALAP", "setting": "250 g/Ha", "value": 60}, {"measurement": "Herbicidal activity (0-100 scale) GALAP", "setting": "500 g/Ha", "value": 80}, {"measurement": "Herbicidal activity (0-100 scale) HORVW", "setting": "15 g/Ha", "value": 10}, {"measurement": "Herbicidal activity (0-100 scale) HORVW", "setting": "30 g/Ha", "value": 10}, {"measurement": "Herbicidal activity (0-100 scale) HORVW", "setting": "60 g/Ha", "value": 10}, {"measurement": "Herbicidal activity (0-100 scale) HORVW", "setting": "125 g/Ha", "value": 40}, {"measurement": "Herbicidal activity (0-100 scale) HORVW", "setting": "250 g/Ha", "value": 40}, {"measurement": "Herbicidal activity (0-100 scale) HORVW", "setting": "500 g/Ha", "value": 80}, {"measurement": "Herbicidal activity (0-100 scale) KCHSC", "setting": "15 g/Ha", "value": 0}, {"measurement": "Herbicidal activity (0-100 scale) KCHSC", "setting": "30 g/Ha", "value": 0}, {"measurement": "Herbicidal activity (0-100 scale) KCHSC", "setting": "60 g/Ha", "value": 10}, {"measurement": "Herbicidal activity (0-100 scale) KCHSC", "setting": "125 g/Ha", "value": 20}, {"measurement": "Herbicidal activity (0-100 scale) KCHSC", "setting": "250 g/Ha", "value": 50}, {"measurement": "Herbicidal activity (0-100 scale) KCHSC", "setting": "500 g/Ha", "value": 80}, {"measurement": "Herbicidal activity (0-100 scale) LOLPE", "setting": "15 g/Ha", "value": 20}, {"measurement": "Herbicidal activity (0-100 scale) LOLPE", "setting": "30 g/Ha", "value": 40}, {"measurement": "Herbicidal activity (0-100 scale) LOLPE", "setting": "60 g/Ha", "value": 90}, {"measurement": "Herbicidal activity (0-100 scale) LOLPE", "setting": "125 g/Ha", "value": 90}, {"measurement": "Herbicidal activity (0-100 scale) LOLPE", "setting": "250 g/Ha", "value": 90}, {"measurement": "Herbicidal activity (0-100 scale) LOLPE", "setting": "500 g/Ha", "value": 90}, {"measurement": "Herbicidal activity (0-100 scale) POAAN", "setting": "15 g/Ha", "value": 30}, {"measurement": "Herbicidal activity (0-100 scale) POAAN", "setting": "30 g/Ha", "value": 30}, {"measurement": "Herbicidal activity (0-100 scale) POAAN", "setting": "60 g/Ha", "value": 80}, {"measurement": "Herbicidal activity (0-100 scale) POAAN", "setting": "125 g/Ha", "value": 80}, {"measurement": "Herbicidal activity (0-100 scale) POAAN", "setting": "250 g/Ha", "value": 90}, {"measurement": "Herbicidal activity (0-100 scale) POAAN", "setting": "500 g/Ha", "value": 90}, {"measurement": "Herbicidal activity (0-100 scale) POLCO", "setting": "15 g/Ha", "value": 60}, {"measurement": "Herbicidal activity (0-100 scale) POLCO", "setting": "30 g/Ha", "value": 70}, {"measurement": "Herbicidal activity (0-100 scale) POLCO", "setting": "60 g/Ha", "value": 90}, {"measurement": "Herbicidal activity (0-100 scale) POLCO", "setting": "125 g/Ha", "value": 90}, {"measurement": "Herbicidal activity (0-100 scale) POLCO", "setting": "250 g/Ha", "value": 90}, {"measurement": "Herbicidal activity (0-100 scale) POLCO", "setting": "500 g/Ha", "value": 90}, {"measurement": "Herbicidal activity (0-100 scale) SINAR", "setting": "15 g/Ha", "value": 40}, {"measurement": "Herbicidal activity (0-100 scale) SINAR", "setting": "30 g/Ha", "value": 80}, {"measurement": "Herbicidal activity (0-100 scale) SINAR", "setting": "60 g/Ha", "value": 80}, {"measurement": "Herbicidal activity (0-100 scale) SINAR", "setting": "125 g/Ha", "value": 90}, {"measurement": "Herbicidal activity (0-100 scale) SINAR", "setting": "250 g/Ha", "value": 90}, {"measurement": "Herbicidal activity (0-100 scale) SINAR", "setting": "500 g/Ha", "value": 90}, {"measurement": "Herbicidal activity (0-100 scale) STEME", "setting": "15 g/Ha", "value": 90}, {"measurement": "Herbicidal activity (0-100 scale) STEME", "setting": "30 g/Ha", "value": 90}, {"measurement": "Herbicidal activity (0-100 scale) STEME", "setting": "60 g/Ha", "value": 90}, {"measurement": "Herbicidal activity (0-100 scale) STEME", "setting": "125 g/Ha", "value": 100}, {"measurement": "Herbicidal activity (0-100 scale) STEME", "setting": "250 g/Ha", "value": 100}, {"measurement": "Herbicidal activity (0-100 scale) STEME", "setting": "500 g/Ha", "value": 100}, {"measurement": "Herbicidal activity (0-100 scale) TRZAW", "setting": "15 g/Ha", "value": 0}, {"measurement": "Herbicidal activity (0-100 scale) TRZAW", "setting": "30 g/Ha", "value": 10}, {"measurement": "Herbicidal activity (0-100 scale) TRZAW", "setting": "60 g/Ha", "value": 20}, {"measurement": "Herbicidal activity (0-100 scale) TRZAW", "setting": "125 g/Ha", "value": 20}, {"measurement": "Herbicidal activity (0-100 scale) TRZAW", "setting": "250 g/Ha", "value": 50}, {"measurement": "Herbicidal activity (0-100 scale) TRZAW", "setting": "500 g/Ha", "value": 80}, {"measurement": "Herbicidal activity (0-100 scale) VERPE", "setting": "15 g/Ha", "value": 60}, {"measurement": "Herbicidal activity (0-100 scale) VERPE", "setting": "30 g/Ha", "value": 80}, {"measurement": "Herbicidal activity (0-100 scale) VERPE", "setting": "60 g/Ha", "value": 90}, {"measurement": "Herbicidal activity (0-100 scale) VERPE", "setting": "125 g/Ha", "value": 80}, {"measurement": "Herbicidal activity (0-100 scale) VERPE", "setting": "250 g/Ha", "value": 100}, {"measurement": "Herbicidal activity (0-100 scale) VERPE", "setting": "500 g/Ha", "value": 100}]}]}
